Columns and labels:
JAK1 = JAK1 (Homo sapiens (Human), UniProt P23458); assay: Jak Biochemical HTRF Assay, JAK1; settings: HTRF biochemical assay, GST-tagged catalytic domain; top concentration tested […]; read-out: JAK1 IC50
Description: (§1) Jak Biochemical HTRF Assay Protocol
(§2) Subsequent reagent additions employed an Agilent Bravo.

JAK2 = JAK2 (Homo sapiens (Human), UniProt O60674); assay: Jak Biochemical HTRF Assay, JAK2; settings: HTRF biochemical assay, GST-tagged catalytic domain; top concentration tested […]
Chain of JAK2 (O60674 849-1124): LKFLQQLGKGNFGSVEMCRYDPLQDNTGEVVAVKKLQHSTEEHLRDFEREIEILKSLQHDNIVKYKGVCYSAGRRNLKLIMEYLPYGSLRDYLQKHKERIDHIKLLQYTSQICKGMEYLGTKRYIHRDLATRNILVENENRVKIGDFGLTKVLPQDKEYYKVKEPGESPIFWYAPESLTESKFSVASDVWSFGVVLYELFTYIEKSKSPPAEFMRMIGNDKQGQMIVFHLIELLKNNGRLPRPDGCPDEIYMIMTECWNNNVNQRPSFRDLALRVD
Description: as §1, §2

Chain of JAK1 (P23458 875-1153): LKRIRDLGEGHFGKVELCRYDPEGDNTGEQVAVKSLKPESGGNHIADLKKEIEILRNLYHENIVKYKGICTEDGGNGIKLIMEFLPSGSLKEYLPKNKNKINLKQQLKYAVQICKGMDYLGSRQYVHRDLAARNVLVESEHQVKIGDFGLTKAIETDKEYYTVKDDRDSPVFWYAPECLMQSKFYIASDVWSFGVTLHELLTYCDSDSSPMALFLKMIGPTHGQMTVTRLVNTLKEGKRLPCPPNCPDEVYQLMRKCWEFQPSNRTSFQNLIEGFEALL

IC50 (JAK1) [nM]	IC50 (JAK2) [nM]	Structure (SMILES)
35	460	N#CCC1(n2cc(C(N)=O)c(Nc3ccccc3)n2)CCN(Cc2ccc(C(F)(F)F)cc2)CC1 [Example 21-19, 1-{4-(cyanomethyl)-1-[4-(trifluoromethyl)benzyl]piperidin-4-yl}-3-(phenylamino)-1H-pyrazole-4-carboxamide]
3	44	N#CCC1(n2cc(C(N)=O)c(Nc3ccccc3)n2)CCN(Cc2ccc(Cl)cc2F)CC1 [Example 21-21, 1-[1-(4-chloro-2-fluorobenzyl)-4-(cyanomethyl)piperidin-4-yl]-3-(phenylamino)-1H-pyrazole-4-carboxamide]
72	888	CCCc1ccc(CN2CCC(CC#N)(n3cc(C(N)=O)c(Nc4ccccc4)n3)CC2)cc1 [Example 21-22, 1-[4-(cyanomethyl)-1-(4-propylbenzyl)piperidin-4-yl]-3-(phenylamino)-1H-pyrazole-4-carboxamide]
0.8	13	N#CCC1(n2cc(C(N)=O)c(Nc3ccccc3)n2)CCN(Cc2c(F)cccc2F)CC1 [Example 21-23, 1-[4-(cyanomethyl)-1-(2,6-difluorobenzyl)piperidin-4-yl]-3-(phenylamino)-1H-pyrazole-4-carboxamide]
120	1050	CC(C)c1ccc(CN2CCC(CC#N)(n3cc(C(N)=O)c(Nc4ccccc4)n3)CC2)cc1 [Example 21-24, 1-{4-(cyanomethyl)-1-[4-(1-methylethyl)benzyl]piperidin-4-yl}-3-(phenylamino)-1H-pyrazole-4-carboxamide]
83	747	N#CCC1(n2cc(C(N)=O)c(Nc3ccccc3)n2)CCN(CC#Cc2ccccc2)CC1 [Example 21-25, 1-[4-(cyanomethyl)-1-(3-phenylprop-2-yn-1-yl)piperidin-4-yl]-3-(phenylamino)-1H-pyrazole-4-carboxamide]
0.7	11	N#CCC1(n2cc(C(N)=O)c(Nc3ccccc3)n2)CCN(Cc2c(F)ccc(F)c2F)CC1 [Example 21-26, 1-[4-(cyanomethyl)-1-(2,3,6-trifluorobenzyl)piperidin-4-yl]-3-(phenylamino)-1H-pyrazole-4-carboxamide]
36	809	CC(C)Oc1ccc(CN2CCC(CC#N)(n3cc(C(N)=O)c(Nc4ccccc4)n3)CC2)cc1 [Example 21-27, 1-{4-(cyanomethyl)-1-[4-(1-methylethoxy)benzyl]piperidin-4-yl}-3-(phenylamino)-1H-pyrazole-4-carboxamide]
39	453	Cc1ccc(CN2CCC(CC#N)(n3cc(C(N)=O)c(Nc4ccccc4)n3)CC2)cc1C [Example 21-28, 1-[4-(cyanomethyl)-1-(3,4-dimethylbenzyl)piperidin-4-yl]-3-(phenylamino)-1H-pyrazole-4-carboxamide]
21	400	COC(=O)c1ccccc1CN1CCC(CC#N)(n2cc(C(N)=O)c(Nc3ccccc3)n2)CC1 [Example 21-29, methyl 2-({4-[4-carbamoyl-3-(phenylamino)-1H-pyrazol-1-yl]-4-(cyanomethyl)piperidin-1-yl}methyl)benzoate]
30	447	CCn1ccnc1CN1CCC(CC#N)(n2cc(C(N)=O)c(Nc3ccnc(F)c3)n2)CC1 [Example 22-1, 1-(4-(Cyanomethyl)-1-((1-ethyl-1H-imidazol-2-yl)methyl)piperidin-4-yl)-3-((2-fluoropyridin-4-yl)amino)-1H-pyrazole-4-carboxamide]
0.2	5	N#CCC1(n2cc(C(N)=O)c(Nc3ccnc(F)c3)n2)CCN(Cc2cccnc2)CC1 [Example 22-2, 1-[4-(cyanomethyl)-1-(pyridin-3-ylmethyl)piperidin-4-yl]-3-[(2-fluoropyridin-4-yl)amino]-1H-pyrazole-4-carboxamide]

Reference: patent US9328099B2, “Cyanomethylpyrazole carboxamides as janus kinase inhibitors” (Merck Sharp & Dohme Corp., priority 2011, dated 2016)
